Results taken from PMC5842505, “Allosteric Inhibition of Serotonin 5-HT7 Receptors by Zinc Ions” (Molecular Neurobiology, 2017).
Like-named read-outs stand apart in the source and are kept apart here. One block for each compound: values may come before it.

Legend:
[1] = target: T1, human 5-HT7b receptor (Homo sapiens, UniProt P34969); assay: LANCE cAMP functional assay in HEK293 cells expressing the 5-HT7 receptor; format: cell-based; details: for effect on constitutive (unstimulated cAMP) activity: constitutively active 5-HT7 HEK293 cell line; for K B: antagonist vs 10 nM 5-CT
T1 construct: The full-length human 5-HT7b receptor complementary DNA (cDNA)
T1 sequence (P34969 1-432 limits assumed): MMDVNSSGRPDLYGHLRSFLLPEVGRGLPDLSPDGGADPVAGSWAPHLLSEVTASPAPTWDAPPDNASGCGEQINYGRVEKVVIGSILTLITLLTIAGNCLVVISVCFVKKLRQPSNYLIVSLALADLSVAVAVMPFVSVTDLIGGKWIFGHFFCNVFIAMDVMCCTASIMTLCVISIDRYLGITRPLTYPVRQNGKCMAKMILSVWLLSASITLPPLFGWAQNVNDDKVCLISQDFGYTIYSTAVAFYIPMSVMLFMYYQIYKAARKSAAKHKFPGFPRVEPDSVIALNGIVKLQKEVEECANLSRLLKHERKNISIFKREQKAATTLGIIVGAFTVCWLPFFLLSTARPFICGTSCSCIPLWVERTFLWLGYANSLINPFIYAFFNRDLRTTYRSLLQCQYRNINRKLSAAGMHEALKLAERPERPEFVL
Method: (§1) HEK293 cells stably expressing the human 5-HT7b receptor were grown in Dulbecco’s Modified Eagle’s Medium (DMEM) (Lonza, Basel, Switzerland) supplemented with 10% dialyzed fetal bovine serum (FBS) (Lonza) and 500 μg/ml G418 sulfate (Sigma-Aldrich) at 37 °C in a humidified atmosphere with 5% CO2. For the membrane preparations, the cells were sub-cultured in 150-cm^2 flasks, grown to 90% confluence, washed twice with phosphate-buffered saline (PBS) pre-warmed to 37 °C, and pelleted by centrifugation (200×g for 5 min) in PBS containing 0.1 mM ethylenediaminetetraacetic acid (EDTA) and 1 mM dithiothreitol (DTT). Prior to the membrane preparation, the pellets were frozen at −80 °C. For the functional experiments, the cells were sub-cultured in 75-cm^2 flasks, grown to 90% confluence, washed twice with PBS pre-warmed to 37 °C, and pelleted by centrifugation (180×g) in PBS containing 0.5 mM EDTA. The supernatant was aspirated, and the cell pellet was resuspended in stimulation buffer (1× HBSS, 5 mM HEPES, 0.5 mM IBMX, 0.1% BSA).
Each compound was tested at eight concentrations ranging from 0.01 nM to 100 μM. The total level of cAMP was measured using the LANCE cAMP detection kit (PerkinElmer) according to the manufacturer’s recommendations. To quantify the cAMP levels, 200 or 1000 (for measuring constitutive activity) cells/well (5 μl) were incubated with compounds (5 μl) for 30 min at room temperature in a 384-well white opaque microtiter plate. After incubation, 10 μl of the working solution (5 μl Eu-cAMP and 5 μl ULight-anti-cAMP) was added to induce cell lysis and terminate the reaction. The assay plate was incubated for 1 h at room temperature. The time-resolved fluorescence resonance energy transfer (TR-FRET) signal was detected using an Infinite M1000 PRO (Tecan, Männedorf, Switzerland) with instrument settings from the LANCE cAMP detection kit manual.
The derivation of the Cheng–Prusoff equation was applied for the analysis of antagonist functional inhibition curves

[2] = tested on: 5-HT1A receptor; parameters: method as in PMID 26660328; details: cited from earlier work
[3] = target: T2, human 5-HT7 receptor (Homo sapiens, UniProt P34969); assay: Saturation radioligand binding in the absence and presence of Zn2+; parameters: The full-length human 5-HT7b receptor complementary DNA (cDNA); details: non-linear regression, Eq. 1
T2 sequence (P34969 1-432 limits assumed): as above
Method: as §1
(§2) Cell pellets were thawed and homogenized in 10 volumes of 50 mM Tris–HCl buffer (pH 7.7) containing 0.1 mM EDTA, using an Ultra Turrax tissue homogenizer. The pellets were centrifuged twice at 35,000×g for 20 min at 4 °C, with 15-min incubation at 37 °C between centrifugations. The pellets were then resuspended in the incubation buffer as described below for the radioligand binding assays. The membrane protein concentrations were determined using the Pierce™ Coomassie (Bradford) Protein Assay Kit (Thermo Fisher Scientific, Waltham, USA), with bovine serum albumin (BSA) as the standard.
(§3) Data from the saturation (K D), competition binding (K i), and kinetic experiments (koff/offobs) were fitted to a one- or two-site model, and the models were compared using an F test (extra sum-of-squares test).

[4] = tested on: HEK293 cells; details: 30-min exposure, MTT and LDH tests
Method: To estimate potential ZnCl2-induced cell death, a colorimetric method was applied in which the amount of formazan salt that had formed after the conversion of lactate to pyruvate followed by the reduction of tetrazolium salt was proportional to the lactate dehydrogenase (LDH) activity in the sample. All procedures were conducted according to the manufacturer’s protocol (Pierce LDH Cytotoxicity Assay Kit, Thermo Fisher Scientific, Waltham, Massachusetts, USA). In brief, the level of LDH released from damaged cells into the culture medium was measured after a 30-min exposure to different concentrations of ZnCl2 in 96-well plates. Cell-free culture supernatants were collected from each well and incubated with the appropriate substrate mix at RT for 30 min. The intensity of the red color formed in the assay and measured at a wavelength of 490 nm was proportional to the LDH activity and the number of damaged cells. The data were normalized to the activity of LDH released from lysis buffer-treated cells (100%) and expressed as a percent of the total ± SEM from three separate experiments.
The yellow tetrazolium 3-(4,5-dimethylthiazolyl-2)-2,5-diphenyltetrazolium bromide (MTT) is reduced by metabolically active cells, by the action of dehydrogenase enzymes, generating NADH and NADPH. The resulting intracellular purple formazan is then solubilized and quantified by spectrophotometry. […]

[5] = target: T2, human 5-HT7 receptor; assay: Competition radioligand binding (orthosteric ligands ± Zn2+; Zn2+ titration curves); parameters: The full-length human 5-HT7b receptor complementary DNA (cDNA); details: read-out: IC50 for inhibiting radioligand binding
Method: as §2, §3
For the competition binding assay, the affinity constant values (K i) were calculated using the Cheng–Prusoff equation (Eq. 2): […]

[6] = target: T2, human 5-HT7 receptor; assay: Screen of monovalent and divalent cations on radioligand binding; details: for decrease in radioligand binding relative to the control: higher cation concentration (5 mM)
Method: Non-specific binding was defined by the binding obtained in the presence of 10 μM 5-HT. The incubation buffer consisted of 50 mM Tris–HCl (pH 7.7), 4 mM MgCl2, 10 μM pargyline, and 0.1% ascorbic acid. The binding reactions were stopped by filtration through GF/B UniFilter plates using a harvester (PerkinElmer). The plate filters were then dried, and 20 μl of Ultima Gold MV (PerkinElmer) was added. Radioactivity was measured using a MicroBeta TriLux counter (PerkinElmer).
Initially, different monovalent and divalent cations (Na^+, K^+, Mg^2+, Ca^2+, and Zn^2+) were screened at concentrations of 500 μM and 5 mM to assess whether they had any effects on the 5-HT7 receptor (Fig. 1).
The binding of radioligands in the absence of the tested cations is referred to as basal specific binding and was set to 100% (dotted line)

[7] = tested on: muscarinic M2 receptor; parameters: method as in PMID 17009927; details: cited from earlier work
[8] = cation at both concentrations, 500 μM and 5 mM

SMILES: [Cl-].[Cl-].[Zn+2] [Zn^2+, ZnCl2]
effect on constitutive (unstimulated cAMP) activity [1]: no influence | functional profile ([1]; zinc concentration up to 10 μM): weak neutral antagonist | effect on agonist binding ([2]; Zn2+ 10 μM): potentiation | effect on agonist binding ([2]; Zn2+ 500 μM): inhibition | cooperativity factor α ([3]; vs [3H]5-CT binding): 0.15 | cooperativity factor α ([3]; vs [3H]SB-269970 binding): 0.06 | cooperativity factor α ([3]; vs [3H]mesulergine binding): 0.25 | concentration not affecting the number of living cells [4]: ≤ 200 µM | IC50 ([5]; vs [3H]5-CT at fixed concentration (≤K D)): 346 µM | IC50 ([5]; vs [3H]SB-269970 at fixed concentration (≤K D)): 1170 µM | IC50 ([5]; vs [3H]mesulergine at fixed concentration (≤K D)): 241 µM | effect on the level of [3H]SB-269970 binding ([6]; cation 500 μM): did not influence | reduction of [3H]5-CT binding ([6]; cation 500 μM): 67% | reduction of [3H]mesulergine binding ([6]; cation 500 μM): 55% | decrease in radioligand binding relative to the control [6]: up to 90%

SMILES: C=CC[N@@+]12CC[C@@]34c5ccccc5N5/C=C6/[C@H]7C[C@H]8[C@@]9(CC[N@@+]8(CC=C)C/C7=C/CO)c7ccccc7N(/C=C(/[C@@H](C[C@@H]31)/C(=C\CO)C2)[C@H]54)[C@@H]69 [alcuronium]
change in the affinity of acetylcholine (fold) [7]: 10 fold | change in the affinity of arecoline (fold) [7]: 1.7 fold

SMILES: [Ca+2] [Ca^2+]
effect on the binding of the three tested radioligands ([6]; cation 500 μM): did not alter | decrease in radioligand binding relative to the control [6]: 10 to 20%

K B ([1]; Zn2+ 0 μM): 31.05 ± 7.51 nM | K B ([1]; Zn2+ 0 μM, listed as mesulergine): 31 nM | K B ([1]; Zn2+ 10 μM): 37.15 ± 6.86 nM | effect on constitutive (unstimulated cAMP) activity [1]: inverse agonistic properties
SMILES: CN1C[C@@H](NS(=O)(=O)N(C)C)C[C@@H]2c3cccc4c3c(cn4C)C[C@H]21 [Mesulergine, mesulergine]

SMILES: [Mg+2] [Mg^2+]
effect on the binding of the three tested radioligands ([6]; cation 500 μM): did not alter | decrease in radioligand binding relative to the control [6]: 10 to 20%

effect on the binding of the three tested radioligands [6, 8]: did not alter
SMILES: [K+] [K^+]

SMILES: [Na+] [Na^+]
effect on the binding of the three tested radioligands [6, 8]: did not alter
